Laboratory results taken from patent US20230331672A1, “6-METHOXY-2-PHENETHYL ISOINDOLINE-1-ONE DERIVATIVE AND COMPOSITION FOR TREATING NEUROLOGICAL DISORDERS, COMPRISING SAME” (CNG BIO CO., LTD., priority 2020, published 2023).

test system: NO production in BV2 cells (microglia); assay: NO production in LPS-stimulated BV2 cells (Griess reaction), antineuritic activity; assay type: cell-based; settings: 10 μM, 100 ng/ml LPS for 24 hours, nitrite by Griess reaction, FIG. 26
Procedure: BV2 cells (microglia) were dispensed in DMEM culture solution at a concentration of 6×10^4 cells/well in a 96 well plate, and then treated with the compounds of the present invention at a concentration of 10 μM, and incubated for 24 hours. After 24 hours, each sample was treated with a concentration of 10 μM, reacted for 1 hour, and then stimulated with 100 ng/ml of LPS for 24 hours. The production of nitrite, a soluble oxidation product of NO (nitric oxide), was measured in the culture medium through the Griess reaction.

| SMILES | NO production compared to untreated control group |
| --- | --- |
| COCOc1c(Br)c(OC)cc2c1CN(CCc1ccc(OC)cc1)C2=O [Formula 12, 5-bromo-6-methoxy-4-(methoxymethoxy)-2-(4-methoxyphenethyl)isoindolin-1-one] | significantly reduced |
| C=Cc1c(OC)cc2c(c1OCOC)CN(CCc1ccc(OC)cc1)C2=O [Formula 13, 6-methoxy-4-(methoxymethoxy)-2-(4-methoxyphenethyl)-5-vinylisoindolin-1-one] | significantly reduced |
| COc1ccc(CCN2Cc3c(cc(OC)c(CCO)c3O)C2=O)cc1 [Formula 15, 4-hydroxy-5-(2-hydroxyethyl)-6-methoxy-2-(4-methoxyphenethyl)isoindolin-1-one] | significantly reduced |
| COc1cc2c(c(O)c1CCCO)CN(CCc1ccccc1)C2=O [Formula 17, 4-hydroxy-5-(3-hydroxypropyl)-6-methoxy-2-phenethyl isoindolin-1-one] | significantly reduced |
| COc1cc2c(c3c1CCO3)CN(CCc1ccccc1)C2=O [Formula 19, 4-methoxy-7-phenethyl-7,8-dihydro-2H-furo[2,3-e]isoindole-6(3H)-1] | significantly reduced |
| C=Cc1c(OC)cc2c(c1O)CN(CCc1ccc(OC)cc1)C2=O [Formula 21] | significantly reduced |

test system: nerve growth factor (NGF) in C6 glioma cells; assay: Ability to promote increase of nerve growth factor (NGF) produced in cell medium, ELISA; assay type: cell-based, Rat; settings: 10 μM, 24 hours, FIG. 22
Procedure: Rat astrocyte-derived C6 glioma cells were dispensed in DMEM culture solution at a concentration of 1×10^5 cells/well in a 24 well plate and stabilized overnight, and then treated with the compounds of the present invention at a concentration of 10 μM, and reacted in a 37° C. incubator for 24 hours. The treated medium was collected and centrifuged, and then absorbance was measured using an enzyme linked immunoassay kit (ELISA kit).

| SMILES | nerve growth factor produced in the cell medium |
| --- | --- |
| COc1cc2c(c(O)c1Br)CN(CCc1ccc(F)cc1)C2=O [Formula 1, 5-bromo-2-(4-fluorophenethyl)-4-hydroxy-6-methoxyisoindolin-1-one] | significantly excellent |
| COc1cc2c(c(O)c1Br)CN(CCc1ccc(C(F)(F)F)cc1)C2=O [Formula 6, 5-bromo-4-hydroxy-6-methoxy-2-(4-(trifluoromethyl)phenethyl)isoindolin-1-one] | significantly excellent |
| C=Cc1c(OC)cc2c(c1OCOC)CN(CCc1ccc(OC)cc1)C2=O [Formula 13, 6-methoxy-4-(methoxymethoxy)-2-(4-methoxyphenethyl)-5-vinylisoindolin-1-one] | significantly excellent |
| C=Cc1c(OC)cc2c(c1O)CN(CCc1ccc(C(F)(F)F)cc1)C2=O [Formula 20, 4-hydroxy-6-methoxy-2-(4-(trifluoromethyl)phenethyl)-5-vinylisoindolin-1-one] | significantly excellent |
